Test results published in patent US5547951A, “Pyrido[2,3-b][1,4]benzoxazepin (and thiazepin)-6(5H)-ones and -thiones and their use in the prevention or treatment of HIV-1 infection” (Boehringer Ingelheim Pharamceuticals, Inc., priority 1994, dated 1996).
In brackets after ≈: the same amount, converted by molar mass.

Key:
[1] = target: T1, HIV-1 reverse transcriptase (Human immunodeficiency virus type 1 group M subtype B, UniProt P03367); assay: Reverse Transcriptase (RT) Assay: inhibition of RNA-dependent DNA polymerase activity, cell-free, poly r(C)/oligo d(G) template, 3H-dGTP substrate; format: biochemical, Human Immunodeficiency Virus (HIV-1), LAV strain; details: @ 10 μg/ml; room temperature, 60 minutes
T1 construct: Reverse transcriptase enzyme from the LAV strain; made in house; host or cells: E. coli JM109, DNA clone pBRTprtl+ in expression vector pIBI21 (lac promoter)
Source text: Utilizing the Reverse Transcriptase (RT) Assay described below, compounds can be tested for their ability to inhibit the RNA-dependent DNA polymerase activity of HIV RT. Certain specific compounds, described in the Examples which appear below, were so tested. […]
Among the enzymes for which Human Immunodeficiency Virus (HIV-1) encodes is a reverse transcriptase (1), so-named because it transcribes a DNA copy from an RNA template. This activity can be quantitatively measured in a cell-free enzyme assay which has been previously described (2), and is based upon the observation that reverse transcriptase is able to use a synthetic template [poly r(C) primed with oligo d(G)] to transcribe a radio-labelled, acidprecipitable DNA strand utilizing ^3 3H-dGTP as a substrate. […]
a) Preparation of the enzyme
Reverse transcriptase enzyme from the LAV strain of Human Immuno- deficiency Virus (HIV-1) (1) was isolated from the bacterial strain JM109 (3) expressing the DNA clone pBRTprtl+ (2) which is under the control of the lac promotor in the expression vector pIBI21 (4). An overnight culture grown in 2XYT medium (37° C., 225 rpm) (5) supplemented with 100 μg/ml ampicillin for positive selection is inoculated at a 1:40 dilution into M9 medium supplemented with 10μg/ml thiamine, 0.5% casamino acids, and 50 μg/ml ampicillin (5). The culture is incubated (37° C., 225 rpm) until it reaches an 0D540 of 0.3-0.4. At that time the repressor inhibitor IPTG (isopropyl b-D-thiogalactopyranoside) is added to 0.5 mM and incubated for 2 additional hours. Bacteria are pelletted, resuspended in a 50mM Tris, 0.6mM EDTA, 0.375 M NaGl buffer and digested by the addition of lysozyme (1 mg/ml) for 30 minutes on ice. The cells are lysed by the addition to 0.2% NP-40 and brought to 1 M NAGl.
After removal of the insoluble debris by centrifugation, the protein is precipitated by the addition of 3 volumes of saturated aqueous ammonium sulfate. The enzyme is pelleted, resuspended in RT buffer (50 mM Tris pH 7.5, 1 mM EDTA, 5mM DTT, 0.1% NP-40, 0.1M NaCl, and 50% glycerol) and stored at -70° C. for further use. […]
b) Composition of 2X concentrated stock reaction mixture
The 2X concentrated stock reaction mixture is aliquoted and stored at -20° C. The mixture is stable and thawed for use in each assay. This enzyme assay has been adapted to a 96 well microtiter plate system, and has been previously described (6). Tris buffer (50 mM, pH 7.4), vehicle (solvent diluted to match the compound dilution), or compounds in vehicle are dispensed into 96-well microtiter plates (10 μl/well; 3 wells/compound). The HIV RT enzyme is thawed, diluted in 50 mM Tris pH 7.4 so that fifteen μl of diluted enzyme contain 0.001 Unit (one unit is that amount of enzyme to transform 1 micromole of substrate per minute at 25° C.), and 15 μ are dispensed per well. Twenty μl of 0.12-0.5M EDTA are added to the first three wells of the microtiter plate. EDTA thelares the Mg^++ present and prevents reverse transcription. This group serves as background polymerization which is subtracted from all other groups. Twenty-five μl of the 2X reaction mixture are added to all wells and the assay is allowed to incubate at room temperature for 60 minutes. The assay is terminated by precipitating the DNA in each well with 50 μl of 10% trichloracetic acid (TCA) in 1% sodium pyrophosphate. The microtiter plate is incubated for 15 minutes at 4° C. and the precipitate is fixed onto #30 glass fiber paper (Schletcher & Schuell) using a Skatron semi- automatic harvester. The filters are then washed with additional 5% TCA containing 1% sodium pyrophosphate, rinsed with 70% aqueous ethanol, dried, and transferred to scintillation vials (6). Each vial receives 2 mls of scintillation cocktail and is counted in a Beckman beta counter.
Calculations for percent inhibition are as follows [formula] References

[2] = MTT assay for cellular cytotoxicity; format: cell-based; details: human, H9 cells, five days, read-out: Cytotoxity Assay EC50
Procedure: In order to roughly assess the cytotoxicity of the compounds of formula I, several were tested in the MTT Cellular Cytotoxicity Assay described below. Compounds having a relatively high EC50 are preferred.
MTT ASSAY FOR CELLULAR CYTOTOXICITY
The MTT [3-(4,5-dimethylthiazol-2yl)-2,5 diphenyl tetrazolium bromide) assay is based on cleavage of tetrazolium bromide by metabolically active cells, resulting in a highly quantitative blue color. This assay has been previously described (1) but has been optimized for the purposes of the testing reported herein.
The H9 cell line (2), an established human lymphoma suspension cell line grown in RPMI 1640 supplemented with 10% fetal bovine serum is used as the target cell line in the assay. Cells (100μl) are plated in microtest plate wells at a concentration of 10^5 cells per ml in the presence of varying concentrations of inhibitor. The cells are incubated at 37° C in a humidified CO2 incubator. Five days later, 20 μl of MTT (5 mg/ml in RPMI 1640, sonicated, 0.2 micron filtered, and stored at 4° C.) is added to each well. After 4 hours additional incubation at 37° 60 μl of Triton-X is added to each well and thoroughly mixed to aid the solubiltzation of the crystals. Absolute ethanol (5μ) is added to remove bubbles, and the mixture is incubated for 30 minutes at 60° C. and immediately read on a plate reader (Dynatech) at a wavelength of 570 nm. […]

## CC=CCN1C(=O)c2ccccc2Oc2ncccc21 [Example 9, 5-(2-Buten-1-yl)pyrido[2,3-b][1,4]benzoxazepin-6(5H) -one]
[1]
  inhibition at 10 µg/mL: 39%

## CCC(=O)N1C(=O)c2cc(C)ccc2Oc2ncccc21 [Example 12, 8-Methyl-5-propionylpyrido[2,3-b][1,4]benzoxazepin-6(5H)-one]
[1]
  inhibition at 10 µg/mL: 49%

## C=C(C)CN1C(=O)c2ccccc2Oc2ncccc21 [Example 8, 5-(2-Methyl-2-propen-1-yl)pyrido[2,3-b][1,4]benzoxazepin-6(5H)-one]
[1]
  inhibition at 10 µg/mL: 47%

## CSCCN1C(=O)c2ccccc2Oc2nc(Cl)ccc21 [Example 1, 2-Chloro-5-(methylthioethyl)pyrido[2,3-b][1,4]benzoxazepin-6(5H)-one]
[1]
  inhibition at 10 µg/mL: 99%
[2]
  CC50 at 120 h: 20 mg/L (≈ 62.3 µM)

## CCN1C(=O)c2cccc(C)c2Oc2ncccc21 [Example 5, 5-Ethyl-10-methylpyrido[2,3-b][1,4]benzoxazepin-6(5H)-one]
[1]
  inhibition at 10 µg/mL: 83%

## CCN1C(=O)c2ccc(C)cc2Oc2ncccc21 [Example 11, 5-Ethyl-9-methylpyrido[2,3-b][1,4]benzoxazepin-6(5H)-one]
[1]
  inhibition at 10 µg/mL: 30%

## CN1C(=O)c2cc(N)ccc2Oc2ncccc21 [Example 6, 8-Amino-5-methylpyrido[2,3-b][1,4]benzoxazepin-6(5H)-one]
[1]
  inhibition at 10 µg/mL: 50%

## C=CCN1C(=O)c2ccccc2Oc2nc(Cl)ccc21 [Example 2, 5-Allyl-2-chloropyrido[2,3-b][1,4]benzoxazepin-6(5H)-one]
[1]
  inhibition at 10 µg/mL: 96%

## C=CCN1C(=O)c2cccc(C)c2Oc2ncccc21 [Example 10, 5-Allyl-10-methylpyrido[2,3-b][1,4]benzoxazepin-6(5H)-one]
[1]
  inhibition at 10 µg/mL: 84%

## C=C(Cl)CN1C(=O)c2ccccc2Oc2ncccc21 [Example 7, 5-(2-Chloro-2-propen-1-yl)pyrido[2,3-b][1,4]benzoxazepin-6(5H)-one]
[1]
  inhibition at 10 µg/mL: 66%

## CN1C(=O)c2ccccc2Oc2ncccc21 [Example 3, 5-Methylpyrido[2,3-b][1,4]benzoxzepin-6(5H)-one]
[1]
  inhibition at 10 µg/mL: 30%

## CCC(C)N1C(=O)c2ccccc2Oc2ncccc21 (stereo not shown) [Example 4, 5-Sec-butylpyrido[2,3-b][1,4]benzoxazepin-6(5H) -one]
[1]
  inhibition at 10 µg/mL: 50%
